Where “and” joins values, the source holds several entries; their conditions need not be identical. Equal values may be shown once. Read-outs that look alike come from different tables or passages of the source.
System: ROUNDUP READY FLEX cotton
[1] = Table D1a Study 3, glyphosate:dye 100:1, glyphosate 2520 g/ha, PMIDA 11.9 g/ha
[2] = Table D1a Study 3, glyphosate:dye 100:1, glyphosate 5040 g/ha, PMIDA 23.9 g/ha
[3] = Table D1a Study 2, glyphosate:dye 10:1, glyphosate 2520 g/ha, PMIDA 11.9 g/ha
[4] = Table D1a Study 2, glyphosate:dye 10:1, glyphosate 5040 g/ha, PMIDA 23.9 g/ha
[5] = Table M1a, […], glyphosate 2520 g/ha, PMIDA 11.9 g/ha, control = no additive
[6] = Table M1a, […], glyphosate 5040 g/ha, PMIDA 23.9 g/ha, control = no additive
[7] = Table M3a, […], glyphosate 1260 g/ha, PMIDA 3.95 g/ha
[8] = Table M3a, […], glyphosate 2520 g/ha, PMIDA 7.90 g/ha
[9] = Table M3a, […], glyphosate 5040 g/ha, PMIDA 15.8 g/ha
[10] = Table D1a Study 2, glyphosate:dye 100:1, glyphosate 2520 g/ha, PMIDA 11.9 g/ha
[11] = Table D1a Study 2, glyphosate:dye 100:1, glyphosate 5040 g/ha, PMIDA 23.9 g/ha
[12] = Table D1a Study 2, glyphosate:dye 1000:1, glyphosate 2520 g/ha, PMIDA 11.9 g/ha
[13] = Table D1a Study 2, glyphosate:dye 1000:1, glyphosate 5040 g/ha, PMIDA 23.9 g/ha
[14] = Table H2a, […], glyphosate 2520 g/ha, PMIDA 11.9 g/ha
[15] = Table H2a, […], glyphosate 5040 g/ha, PMIDA 23.9 g/ha
[16] = Table AO1a, […], glyphosate 2520 g/ha, PMIDA 11.9 g/ha
[17] = Table AO1a, […], glyphosate 5040 g/ha, PMIDA 23.9 g/ha

Nc1cc(S(=O)(=O)[O-])cc2cc(S(=O)(=O)[O-])c(N=Nc3ccccc3)c(O)c12.[Na+].[Na+] [FD&C Red #33]
Necrosis Reduction Relative to Coontrol [1]: 6% | Necrosis Reduction Relative to Coontrol [2]: 0%

CCN(Cc1cccc(S(=O)(=O)[O-])c1)c1ccc(C(=C2C=CC(=[N+](CC)Cc3cccc(S(=O)(=O)[O-])c3)C=C2)c2ccccc2S(=O)(=O)[O-])cc1.[Na+].[Na+] [FD&C Blue #1]
Necrosis Reduction Relative to Coontrol [3]: 66% | % necrosis (2 DAT) [4]: 46% | Necrosis Reduction Relative to Coontrol [4]: 41%

polyethylene glycol 900
decrease of necrosis (in words) (in vivo): significantly decreased necrosis

OCCCCO [1,4-butanediol]
decrease of necrosis (in words) (in vivo): significantly decreased necrosis

O=[N+]([O-])[O-].O=[N+]([O-])[O-].[Cu+2] [Cupric Nitrate, Cupric Nitrate (2.1) hydrate]
Necrosis Reduction Relative to Control [5]: 92% | Necrosis Reduction Relative to Control [6]: 68%

[Cl][Fe]([Cl])[Cl] [Ferric chloride]
Necrosis Reduction Relative to Control [5]: 100% | Necrosis Reduction Relative to Control [6]: 97%

COc1cc(S(=O)(=O)[O-])c(C)cc1N=Nc1c(O)ccc2cc(S(=O)(=O)[O-])ccc12.[Na+].[Na+] [FD&C Red #40]
Necrosis Reduction Relative to Coontrol [1]: 11% | Necrosis Reduction Relative to Coontrol [2]: 0%

O=C([O-])CN(CCN(CC(=O)[O-])CC(=O)[O-])CC(=O)[O-].[Fe+3].[Na+] [Iron + EDTA, iron(III) EDTA sodium salt hydrate]
Necrosis Reduction Relative to Control [7]: 100% | Necrosis Reduction Relative to Control [8]: 68% | Necrosis Reduction Relative to Control [9]: 45% | reduction in necrosis, comparison of iron sources (in words) (in vivo): significantly less effective

O=C([O-])c1nn(-c2ccc(S(=O)(=O)[O-])cc2)c(O)c1N=Nc1ccc(S(=O)(=O)[O-])cc1.[Na+].[Na+].[Na+] [FD&C Yellow #5, 3-carboxy-5-hydroxy-1-p-sulfophenyl-4-p-sulfophenylazopyrazole trisodium salt]
Necrosis Reduction Relative to Coontrol (Table D1a Study 1, glyphosate:dye 10:1, glyphosate 2520 g/ha, PMIDA 11.9 g/ha): 96% | Necrosis Reduction Relative to Coontrol (Table D1a Study 1, glyphosate:dye 10:1, glyphosate 5040 g/ha, PMIDA 23.9 g/ha): 55% | Necrosis Reduction Relative to Coontrol [3]: 84% | % necrosis (2 DAT) [4]: 38% | Necrosis Reduction Relative to Coontrol [4]: 51% | % necrosis (2 DAT) [10]: 31% | Necrosis Reduction Relative to Coontrol [10]: 18% | % necrosis (2 DAT) [11]: 55% | Necrosis Reduction Relative to Coontrol [11]: 29% | % necrosis (2 DAT) [12]: 28% | Necrosis Reduction Relative to Coontrol [12]: 26% | % necrosis (2 DAT) [13]: 69% | Necrosis Reduction Relative to Coontrol [13]: 12% | decrease of PMIDA-induced necrosis by dye (in words) (dye as safening agent in glyphosate spray solutions): significantly decrease

OCCOCCO [Diethylene glycol]
decrease of necrosis (in words) (in vivo): significantly decreased necrosis

NC(N)=O [urea]
Necrosis Reduction Relative to Control (Table H1a Study 2, glycerin 4% v/v or urea 8% v/v, glyphosate 2520 g/ha, PMIDA 11.9 g/ha): 36% | Necrosis Reduction Relative to Control (Table H1a Study 2, glycerin 4% v/v or urea 8% v/v, glyphosate 5040 g/ha, PMIDA 23.9 g/ha): 13% | reduction of necrosis (in words) (in vivo): significantly reduced necrosis

O=C([O-])CC(O)(CC(=O)[O-])C(=O)[O-].[Fe+3] [Iron citrate, iron(III) citrate]
Necrosis Reduction Relative to Control [7]: 100% | Necrosis Reduction Relative to Control [8]: 97% | Necrosis Reduction Relative to Control [9]: 75% | reduction in necrosis, comparison of iron sources (in words) (in vivo): no significant difference

OCC(O)CO [glycerin]
Necrosis Reduction Relative to Control (Table H1a Study 1, additive 2% v/v, glyphosate 2520 g/ha, PMIDA 11.9 g/ha): 12% | Necrosis Reduction Relative to Control (Table H1a Study 1, additive 2% v/v, glyphosate 5040 g/ha, PMIDA 23.9 g/ha): 14% | Necrosis Reduction Relative to Control (Table H1a Study 1, additive 4% v/v, glyphosate 2520 g/ha, PMIDA 11.9 g/ha): 45% | Necrosis Reduction Relative to Control (Table H1a Study 1, additive 4% v/v, glyphosate 5040 g/ha, PMIDA 23.9 g/ha): 41% | reduction of necrosis (in words) (in vivo): significantly reduced necrosis

Zinc sulfate heptahydrate
effect of metal salt on necrosis (in words) (in vivo): significantly reduce necrosis

CC(O)C#CC(C)O (stereo not shown) [3-hexyne-2,5-diol]
decrease of necrosis (in words) (in vivo): significantly decreased necrosis

O=C(O)CN(CC(=O)O)CP(=O)(O)O [PMIDA, N-(phosphonomethyl)iminodiacetic acid]
Maximum necrosis (plateau) (Example 1, highest application rate and higher levels of PMIDA): 80-85%

CC(O)CC(C)(C)O (stereo not shown) [2-methyl-2,4-pentanediol]
decrease of necrosis (in words) (in vivo): significantly decreased necrosis

CCC(CO)(CO)CO [trimethylol-propane]
Necrosis Reduction Relative to Control [14]: 0% | Necrosis Reduction Relative to Control [15]: 0%

Aluminum chloride hexahydrate
Necrosis Reduction Relative to Control (in vivo): 95% and 71%

CC(C)CC(C)(O)C#CC(C)(O)CC(C)C (stereo not shown) [Surfynol 104A]
Necrosis Reduction Relative to Control [14]: 50% | Necrosis Reduction Relative to Control [15]: 8% | decrease of necrosis (in words) (in vivo): significantly decreased necrosis

CCN(Cc1cccc(S(=O)(=O)[O-])c1)c1ccc(C(=C2C=CC(=[N+](C)C)C=C2)c2ccc(N(CC)Cc3cccc(S(=O)(=O)O)c3)cc2)cc1 [FD&C Violet #1]
Necrosis Reduction Relative to Coontrol [1]: 37% | Necrosis Reduction Relative to Coontrol [2]: 0%

CCN(Cc1cccc(S(=O)(=O)[O-])c1)c1ccc(C(=C2C=CC(=[N+](CC)Cc3cccc(S(=O)(=O)[O-])c3)C=C2)c2ccc(O)cc2S(=O)(=O)[O-])cc1.[Na+].[Na+] [Fast Green FCF]
Necrosis Reduction Relative to Coontrol [1]: 2% | Necrosis Reduction Relative to Coontrol [2]: 0%

COc1ccc(O)c(C(C)(C)C)c1 [butylated hydroxy anisole, butylated hydroxyanisole]
Necrosis Reduction Relative to Control [16]: 80% | Necrosis Reduction Relative to Control [17]: 29%

O=S([O-])[O-].[Na+].[Na+] [Sodium sulfite, sodium sulfite]
Necrosis Reduction Relative to Control [16]: 39% | Necrosis Reduction Relative to Control [17]: 0%

polyethylene glycol 200
decrease of necrosis (in words) (in vivo): significantly decreased necrosis

O.O.O.O.O.O.O.O=S(=O)([O-])[O-].[Mg+2] [Magnesium sulfate, Magnesium sulfate heptahydrate]
Necrosis Reduction Relative to Control (in vivo): 0% and 6% | effect of metal salt on necrosis (in words) (in vivo): relatively little impact

[Ca+2].[Cl-].[Cl-] [Calcium chloride, Calcium chloride (anhydrous)]
Necrosis Reduction Relative to Control [5]: 32% | Necrosis Reduction Relative to Control [6]: 6%

Reference: patent US12089591B2 (priority 2005, dated 2024)
